In patent US11357752B2, “Carolacton and derivatives thereof for use in the treatment of cell proliferation disorders” (Helmholtz-Zentrum für Infektionsforschung GmbH, priority 2017, dated 2022):

How the values were obtained:
hsMTHFD1 DC301 = molecular target: T1, hsMTHFD1 DC301 (Homo sapiens, UniProt P11586); test: FoID cyclohydrolase (CYH) enzyme assay; assay type: biochemical
T1 construct: We therefore expressed and purified hsMTHFD2 and hsMTHFD1_DC to test them biochemically; His-tag (vector pHis-TEV); made in house; host or cells: E. coli BL21 (DE3)
T1 sequence (P11586 2-291 limits assumed): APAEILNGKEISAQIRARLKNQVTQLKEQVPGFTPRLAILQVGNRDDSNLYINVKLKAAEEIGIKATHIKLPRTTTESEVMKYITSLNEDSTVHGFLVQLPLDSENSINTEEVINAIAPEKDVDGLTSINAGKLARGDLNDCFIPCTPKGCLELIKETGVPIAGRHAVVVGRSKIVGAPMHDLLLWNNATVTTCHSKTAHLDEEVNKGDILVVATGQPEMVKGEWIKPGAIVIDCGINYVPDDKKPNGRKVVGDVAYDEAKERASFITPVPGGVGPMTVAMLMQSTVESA
Experimental: (§1) (6R,S)-5,10-Methylene-5,6,7,8-tetrahydrofolic acid ((6R,S)-5,10-CH2-THF), calcium salt and (6R,S)-5,10-Methenyl-5,6,7,8-tetrahydrofolic acid ((6R,S)-5,10-CH=THF) chloride were purchased from Schircks Laboratories (Bauma, Switzerland) and were used as substrates for FoID dehydrogenase and cyclohydrolase enzyme assays, respectively. Only the R-isomer, which accounts for 50% of (6R,S)-5,10-CH2-THF and (6R,S)-5,10-CH=THF, respectively, is used by the enzyme. (6R,S)-5,10-CH2-THF was dissolved in N2-spargeled basic buffer (50 mM Tris-HCl (pH 8.0), 100 mM β-mercaptoethanol) as described by Sah and Varshney, 2015a (6R,S)-5,10-CH=THF was first dissolved in DMSO as a 100 mM stock solution.
(§2) Because FoID is a bifunctional enzyme, dehydrogenase and cyclohydrolase activities were determined for FoID enzyme kinetics, respectively. The dehydrogenase activity of FoID was assayed for its substrate 5,10-CH2-THF and cofactor NADP+ (in the case of MTHFD2, NAD+ was used as cofactor) based on monitoring the formation of 5,10-CH=THF while the cyclohydrolase activity of FoID was determined for its substrate 5,10-CH=THF by monitoring the hydrolysis of 5,10-CH2-THF. The enzyme kinetics for the dehydrogenase activity of all FoIDs except hsMTHFD1_DC were determined at 30° C. in 50 mM Tris-HCl (pH 7.5), 30 mM β-mercaptoethanol. The hsMTHFD1_DC dehydrogenase activity was measured in 25 mM MOPS (pH 7.3), 30 mM β-mercaptoethanol at 30° C. To measure the enzyme kinetics constants for 5,10-CH2-THF, for example in the case of ecFoID, the NADP concentration was fixed at 1 mM and the concentration of 5,10-CH2-THF varied from 5 μM to 1,500 μM (R-isomer). Similarly, to measure the kinetic constants of ecFoID for NADP+, the concentration of 5,10-CH2-THF (R-isomer) was fixed at 1 mM and the concentration of NADP+ varied from 10 μM to 1,500 μM. For different FoIDs, the varied concentration range of substrates could be different. […] To monitor the formation of 5,10-CH=THF, the absorbance of the reaction mixture was monitored at 350 nm in micro UV cuvettes (BRAND, Essex, Connecticut, USA). The concentration of 5,10-CH=THF produced in the reaction was determined using an extinction co-efficient of 0.0249 μM-1 cm-1. […] The consumption of 5,10-CH=THF was measured by recording the absorbance of the reactions at 355 nm using the TECAN Infinite 200 PRO equipped with a monochromator. […] The inhibition constants (Ki) of carolacton on FoID were determined by measuring the apparent Km values when adding certain amounts of carolacton to the enzyme reactions. […] To compare the inhibition effects of carolacton between the different FoIDs, the half maximal inhibitory concentration (IC50) of carolacton on the same amount of enzyme was determined for FoIDs involved in this study. […]

hsMTHFD2 = molecular target: T2, hsMTHFD2 (Homo sapiens, UniProt P13995); test: FoID cyclohydrolase (CYH) enzyme assay; assay type: biochemical
T2 construct: His-tag (vector pHis-TEV); made in house; host or cells: E. coli BL21 (DE3)
T2 sequence (P13995 36-350): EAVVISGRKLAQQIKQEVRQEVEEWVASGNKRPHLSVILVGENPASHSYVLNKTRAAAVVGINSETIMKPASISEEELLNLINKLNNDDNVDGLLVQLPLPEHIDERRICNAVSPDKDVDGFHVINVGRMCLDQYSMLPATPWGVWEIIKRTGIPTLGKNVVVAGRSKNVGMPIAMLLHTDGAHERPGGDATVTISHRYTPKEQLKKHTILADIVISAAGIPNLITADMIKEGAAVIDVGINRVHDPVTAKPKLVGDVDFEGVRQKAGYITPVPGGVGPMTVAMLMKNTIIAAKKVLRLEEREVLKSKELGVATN
Experimental: as §1, §2

[1] = 5 nM enzyme, read-out: IC50, carolacton inhibition on CYH activity
[2] = vs 5,10-CH=THF, read-out: Ki (5,10-CH═THF), carolacton inhibition on CYH activity

CO[C@H](CC(=O)O)[C@@H](C)C(=O)[C@H](C)/C=C(\C)[C@H]1OC(=O)[C@H](O)[C@H](O)/C=C/[C@H](C)CCC[C@@H]1C [Carolacton, carolacton]
IC50 (hsMTHFD1 DC301; [1]): 19.4 nM | Ki (hsMTHFD1 DC301; [2]): 20.6 nM | IC50 (hsMTHFD2; [1]): 85.7 nM | Ki (hsMTHFD2; [2]): 12.7 nM
